# Earlier results as cited in patent US10813882B1, “In situ gelling formulation for reduced initial drug burst” (King Abdulaziz University, priority 2019, dated 2020).
# Assays:
# [1] = in vivo
structure (smiles),measurement,setting,value
"CC(C)c1nc(N(C)S(C)(=O)=O)nc(-c2ccc(F)cc2)c1/C=C/[C@@H](O)C[C@@H](O)CC(=O)O [RSV, Rosuvastatin]",bioavailability,[1],20%
same,effect of food on the amount absorbed,[1],does not affect
same,time to maximum plasma level,[1],3 to 5 h
same,solubility in organic solvent such as DMSO and DMF,"DMSO, dimethyl formamide",soluble
same,solubility in ethanol,ethanol,marginally soluble
same,bound to plasma protein,plasma protein,88%
